Experimental findings from article PMC9935382, “Sorting nexin-dependent therapeutic targeting of oncogenic epidermal growth factor receptor” (Cancer Gene Therapy, 2022) are described below.

For data set [1], the system named is mammary fat pad and tumors of WAP-TGFα mice. Description: Histopathology (H+E) of WAP-TGFα mouse tissues. Format: in vivo. The settings on record: for Tumor pathology: tumor site in value. The source says: (§1) The transgenic mouse line WAP-TGFα (The Jackson Laboratory; Tg(WapTgfa)215Bri) were back crossed to C57BL/6 J background (N8). WAP-TGFα heterozygous males were bred with C57BL/6 J females to generate study animals and offspring were genotyped using primers against the WAP-TGFα transgene. WAP-TGFα heterozygous females were housed continuously with C57Bl/6 J males to induce pregnancy, resulting in transgene expression. […] To ensure randomized treatment arms we added mice to alternating treatment arms as they developed tumors, starting with the control cPTD4 arm. When a second mouse from the same litter developed a tumor, that animal was added to the opposite arm from its litter mate. The researchers were not blinded to the treatment arms. […] Once entered, mice were weighed, tumors measured, and injections given intravenously at 10 μg/g body weight 3x/week for 4 weeks. […] Upon sacrifice, all tumors were collected and fixed in 10% formalin; a portion of each tumor was homogenized in tissue lysis buffer to form tissue protein lysates. Tissues were paraffin-embedded and sectioned by the Tissue Acquisition and Cell Molecular Analysis Shared Resource at the University of Arizona Cancer Center. The University of Arizona IACUC committee performs oversite of animal experimental protocols with coordination from a veterinarian in compliance with AAALAC.
Mice were bred continuously to induce transgene expression and palpated weekly for tumor formation. […] A Changes in tumor size from entry into study until end of study are shown for each individual tumor, (*) indicate tumors that entered the study at size greater than 500 mm^3, all other tumors entered the study at ~100 mm^3. B a Kaplan-Meier survival curve was generated showing when mice were sacrificed by either reaching tumor burden (2000 mm^3) or the end of the study (p = 0.0002). C Upon sacrifice tumors were harvested and fixed in 10% formalin and embedded in paraffin. FFPE blocks were sectioned at […] and stained with hematoxylin and eosin and imaged at 20x. D Protein lysates were generated from tumors upon the sacrifice and probed for the indicated proteins.
Supplementary Figure 3. Upon sacrifice, tissues were harvested and fixed in 10% formalin. Tissues were embedded, sectioned, and stained with H+E by the Tissue Acquisition and Cell Molecular Analysis Shared Resource (TACMASR) at the University of Arizona Cancer Center. H+E slides were then sent to the UC Davis pathology lab for pathological analysis.

For a further data set, the system named is T47D cells. Put plainly: MTT cell viability, T47D. Format: cell-based. To be noted: 3 days, ER+ breast cancer line. The method, then: (§2) 2 × 10^3 cells were plated per well in a 96 well plate and left to adhere overnight. The following day, drug treatments were started and continued for 3 days. To measure the viability of the remaining cell population, 10% 3-(4,5-dimethylthiazol-2-yl)-2,5-diphenyltetrazolium (MTT) in media was added and incubated for 2 hours and conversion of MTT to formazan at 540 nm using a biotech Synergy LX plate reader.
(§3) A–G Cells were plated in a 96-well plate at 2000 cells per well. […] Cell viability was then measured with an MTT assay, viability of treated cells were compared with the vehicle control. H MDA-MB-468 cells were plated and incubated+/− IPTG for 2 days prior to drug treatment to induce expression of an EGFR-targeted shRNA.

Data set [2] can be described thus: Body weight and toxicity in WAP-TGFα mice. Format: in vivo. To be noted: 10 μg/g IV 3X/week, up to 4 weeks.
Excerpt: as §1, with “The University of Arizona IACUC committee performs oversite of animal experimental protocols with coordination from a veterinarian in compliance with AAALAC.” left out
When tumors reached >100 mm^3, IV injections began at 3X/week, 10 μg/g body weight and tumors were measured 3X/week with calipers. […]
Supplementary Figure 2. […] B. Tumors were measured with calipers 3X/week. […]

The target in data set [3] is T1, EGFR kinase domain (residues 672–998) (Homo sapiens, UniProt P00533).
T1 construct: baculovirus insect cell expression system (residues 672–998 with N-terminal His-tag followed by TEV cleavage site); made in house; host or cells: Sf9 insect cells (Bac-to-Bac baculovirus, pFastBacHT)
Put plainly: Microscale thermophoresis (MST) binding to EGFRkin. The settings on record: direct binding, MST / BLI. On the technique in general: MST reads how a fluorescent partner responds to local heating, with and without ligand.
Procedure: Briefly pFastBacHT plasmid containing the cDNA of EGFR kinase domain with N-terminal His-tag was transformed into DH10Bac E. coli to generate bacmid DNA. P1 virus was generated by transfecting 2.0 mL of sf9 cells at 1.0 million cells/ml density with the purified bacmid DNA (200–3000 ng/μL). The P1 virus was harvested after 5–7 days following transfection. The P1 virus was diluted 100-fold into an sf9 cell culture at a density of 2.0 million cells/ml and cultured for 3 days. Supernatant containing the P2 virus was collected by centrifugation and diluted 40-fold into 1.0 L of sf9 cells at a density of 2.0 million cells/ml. After 2.5–3 days, cell pellets were harvested by centrifugation at 3500 x g at 4 °C for 20 min, and flash frozen in liquid nitrogen prior to storage at −80 °C.
To purify the EGFR kinase domain, Sf9 cell pellets (~10 g) was thawed on ice and homogenized with 2 passages on an EmulsiFlex-C5 (Avestin) in 50 mL of lysis buffer (50 mM Tris pH 7.5, 600 mM NaCl, 1 mM EDTA, 1 mM TCEP, protease inhibitors, DNAase, and 10% Glycerol). The lysate was centrifugated and supernatant was collected and loaded onto a 1.0 mL HisTrap FF column (GE) at a flow rate of 1.0 ml/min. Following loading, the column was washed with 20 column volumes of wash buffer (50 mM Tris pH 7.5, 600 mM NaCl, 20 mM Imidazole, 1 mM TCEP, and 10% Glycerol) and eluted with a linear gradient of elution buffers containing 20 and 300 mM imidazole. Fractions containing the EGFR kinase domain proteins were combined and concentrated to less than 1.0 mL. The concentrated proteins were loaded onto a Superdex 200 10/300 GL column (GE) equilibrated in buffer (20 mM Tris pH 7.5, 100 mM NaCl) for further purification. The purified proteins were concentrated, flash frozen in liquid nitrogen, and stored at −80 °C.
MST experiments were carried out using a Monolith NT.115 pico instrument (NanoTemper Technologies, Munich Germany). […] Kd values were derived from the concentration-dependent changes in normalized fluorescence (Fnorm). Data were analyzed using NanoTemper MO. […]

A further data set relates to PARP. Put plainly: PARP cleavage in tumor lysates (immunoblot). To be noted: tumor lysates at sacrifice; 10 μg/g IV 3X/week; vs cPTD4. Format: in vivo, mouse. How it is done:
Lysates were prepared as described, protein concentrations determined by BCA assay (Pierce) and resolved via standard SDS-PAGE [18]. Gels were transferred to either PVDF (Immobilon P or Immobilon FL) membrane and probed with the indicated antibodies and analyzed by either HRP-linked secondaries (Pierce) or IRDye secondaries (Li-Cor), followed by development in Dura Signal (Pierce) or IR (Licor).
The transgenic mouse line WAP-TGFα (The Jackson Laboratory; Tg(WapTgfa)215Bri) were back crossed to C57BL/6 J background (N8). WAP-TGFα heterozygous males were bred with C57BL/6 J females to generate study animals and offspring were genotyped using primers against the WAP-TGFα transgene. WAP-TGFα heterozygous females were housed continuously with C57Bl/6 J males to induce pregnancy, resulting in transgene expression. […] To ensure randomized treatment arms we added mice to alternating treatment arms as they developed tumors, starting with the control cPTD4 arm. When a second mouse from the same litter developed a tumor, that animal was added to the opposite arm from its litter mate. The researchers were not blinded to the treatment arms. […] Once entered, mice were weighed, tumors measured, and injections given intravenously at 10 μg/g body weight 3x/week for 4 weeks. […]

The test system of the next data set is MCF10A cells. Put plainly: MTT cell viability, MCF10A. Format: cell-based. The settings on record: immortalized breast epithelial line, 3 days. How it is done:
as §2, §3

Each structure is given as a SMILES string. “Also recorded” adds a separate entry of the source.

T1 sequence (P00533 696-1022): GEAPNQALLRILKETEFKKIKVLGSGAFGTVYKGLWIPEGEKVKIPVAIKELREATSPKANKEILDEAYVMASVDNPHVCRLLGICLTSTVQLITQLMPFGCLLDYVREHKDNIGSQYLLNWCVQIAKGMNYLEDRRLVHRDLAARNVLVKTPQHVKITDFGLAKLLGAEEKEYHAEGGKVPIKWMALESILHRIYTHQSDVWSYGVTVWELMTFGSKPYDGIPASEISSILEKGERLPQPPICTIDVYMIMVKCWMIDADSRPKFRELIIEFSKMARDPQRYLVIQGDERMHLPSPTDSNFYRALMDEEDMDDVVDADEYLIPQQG

Take `CC[C@H](C)[C@H](NC(=O)[C@@H](NC(=O)[C@H](Cc1c[nH]cn1)NC(=O)[C@H](CC(N)=O)NC(=O)[C@H](CCCCN)NC(=O)[C@H](C)NC(=O)[C@H](CCCNC(=N)N)NC(=O)[C@H](C)NC(=O)[C@H](CCC(N)=O)NC(=O)[C@H](CCCNC(=N)N)NC(=O)[C@H](C)NC(=O)[C@H](C)NC(=O)[C@H](C)NC(=O)[C@H](CCCNC(=N)N)NC(=O)[C@H](C)NC(=O)[C@H](Cc1ccc(O)cc1)NC(C)=O)C(C)C)C(=O)N[C@@H](CCCCN)C(=O)N[C@@H](Cc1ccc(O)cc1)C(=O)N[C@@H](CC(C)C)C(=O)N[C@@H](CCC(=O)O)C(=O)N[C@H](C(=O)N[C@@H](CC(C)C)C(=O)N[C@@H](CC(C)C)C(=O)N[C@@H](Cc1ccc(O)cc1)C(=O)N[C@@H](CO)C(=O)N[C@@H](CCC(N)=O)C(=O)N[C@@H](CCC(N)=O)C(=O)N[C@@H](CCC(N)=O)C(=O)N[C@@H](CC(C)C)C(=O)N[C@@H](C)C(=O)N[C@@H](CCCCN)C(=O)N[C@@H](Cc1ccc(O)cc1)C(=O)N[C@@H](Cc1c[nH]c2ccccc12)C(=O)N[C@@H](CCC(=O)O)C(=O)N[C@@H](C)C(=O)N[C@@H](Cc1ccccc1)C(=O)N[C@@H](CC(C)C)C(N)=O)[C@@H](C)O` [cSNX1.3]: the “Fat Pad pathology” value in data set [1] (mouse 6.13.7 (cSNX1.3)) is listed as “Mammary adenomatous to lobular (atypical) hyperplasia; In situ mammary adenocarcinoma”; in data set [1] (mouse 6.4.L (cSNX1.3)), “Mammary adenomatous to lobular (atypical) hyperplasia; In situ mammary adenocarcinoma; Focal granulomatous mastitis”; in data set [1] (mouse 6.9.LR (cSNX1.3)) it was “Mammary adenomatous to lobular (atypical) hyperplasia; In situ mammary adenocarcinoma”; in data set [1] (mouse 7.1.9 (cSNX1.3)), “Mammary adenomatous to lobular (atypical) hyperplasia; In situ cystic (small) mammary adenocarcinoma”. For the same molecule, the Tumor pathology result in data set [1] (mouse 6.13.7 (cSNX1.3)) is given as “(R2) Mammary adenocarcinoma (cystic)”; in data set [1] (mouse 6.4.L (cSNX1.3)), “(L4) Mammary adenomatous to lobular (atypical) hyperplasia; Adenoma; In situ mammary adenocarcinoma; also recorded: (R4) Mammary adenomatous to lobular (atypical) hyperplasia; Cystic ectasia”; in data set [1] (mouse 6.9.LR (cSNX1.3)), “(L4) Mixed malignant tumor (fibrous component)”; in data set [1] (mouse 7.1.9 (cSNX1.3)), “(L4) Mammary adenomatous to lobular (atypical) hyperplasia; also recorded: (R4) Mammary adenocarcinoma”. For the same molecule, the “sensitivity (cell viability)” value in the data set with T47D cells is reported as “sensitive”. Also, the observable toxicity entry in data set [2] was “without observable toxicity; also recorded: no observable toxicity; also recorded: lack of observable toxicity in normal tissues”. Further, in data set [3], the “binding to the EGFR kinase domain” value is given as “directly bind the EGFR kinase domain”. For the same molecule, in the data set on PARP, the “PARP cleavage in remaining tumors” value is “increased PARP cleavage; also recorded: increase in cleaved PARP”. In addition, in the data set on MCF10A cells, the “impact on cell viability / growth” value was “almost no impact”.
